Experimental data reported in the NIST ThermoML archive (doi:10.1021/je700290j).

What was measured:
[1] = xn = mol fraction of the nth substance listed; settings: 293.15 K; for surface tension liquid-gas: Ring tensiometer; for speed of sound / mass density / viscosity: 101 kPa, Liquid; for speed of sound: Sing-around technique in a fixed-path interferometer
[2] = for surface tension liquid-gas: Ring tensiometer; for mass density / viscosity / speed of sound: 101 kPa, Liquid; for speed of sound: Sing-around technique in a fixed-path interferometer

C1CCNC1 [pyrrolidine] + C1CCNCC1
[1]
Settings	mass density [kg/m3]	speed of sound [m/s]	surface tension liquid-gas [mN/m]	viscosity [mPa·s]
x2 = 0	863.81	1384.4	30.11	1.551
x2 = 0.1043	863.61	1385.4	30.36	1.457
x2 = 0.2304	863.4	1386.3	30.61	1.364
x2 = 0.496	862.79	1388.2	30.56	1.201
x2 = 0.6423	862.19	1390.1	30.51	1.038
x2 = 0.7053	861.89	1390.8	30.47	0.9752
x2 = 0.8273	861.6	1391.5	30.42	0.9124

C1CCNC1 [pyrrolidine]
[2]
Settings	mass density [kg/m3]	speed of sound [m/s]	surface tension liquid-gas [mN/m]	viscosity [mPa·s]
293.15 K	863.81	1384.4	30.11	1.551
298.15 K	–	–	29.75	–

C1CCNCC1 [piperidine]
[2]
Settings	mass density [kg/m3]	speed of sound [m/s]	surface tension liquid-gas [mN/m]	viscosity [mPa·s]
293.15 K	859.87	1389.4	30.27	0.8207
298.15 K	–	–	29.56	–

C1CCNCC1 [piperidine] + C1CCNC1
[1], x1 = 1
Settings	mass density [kg/m3]	speed of sound [m/s]	surface tension liquid-gas [mN/m]	viscosity [mPa·s]
–	859.87	1389.4	30.27	0.8207
